In US20030109568A1 (CHEIL JEDANG Corporation, priority 2001, published 2003):

What was measured:
cyclooxygenase-1 = molecular target: T1, cyclooxygenase-1 (Mus musculus, UniProt P22437); experiment: Cyclooxygenase-1 inhibition in mouse peritoneal macrophages (PGE2 ELISA); assay type: cell-based; conditions: for Inhibitory effects of cyclooxygenase (COX), COX-1: mouse peritoneal macrophages
T1 construct: endogenous in cells; host or cells: primary mouse peritoneal macrophages (unstimulated)
T1 sequence (P22437 27-602): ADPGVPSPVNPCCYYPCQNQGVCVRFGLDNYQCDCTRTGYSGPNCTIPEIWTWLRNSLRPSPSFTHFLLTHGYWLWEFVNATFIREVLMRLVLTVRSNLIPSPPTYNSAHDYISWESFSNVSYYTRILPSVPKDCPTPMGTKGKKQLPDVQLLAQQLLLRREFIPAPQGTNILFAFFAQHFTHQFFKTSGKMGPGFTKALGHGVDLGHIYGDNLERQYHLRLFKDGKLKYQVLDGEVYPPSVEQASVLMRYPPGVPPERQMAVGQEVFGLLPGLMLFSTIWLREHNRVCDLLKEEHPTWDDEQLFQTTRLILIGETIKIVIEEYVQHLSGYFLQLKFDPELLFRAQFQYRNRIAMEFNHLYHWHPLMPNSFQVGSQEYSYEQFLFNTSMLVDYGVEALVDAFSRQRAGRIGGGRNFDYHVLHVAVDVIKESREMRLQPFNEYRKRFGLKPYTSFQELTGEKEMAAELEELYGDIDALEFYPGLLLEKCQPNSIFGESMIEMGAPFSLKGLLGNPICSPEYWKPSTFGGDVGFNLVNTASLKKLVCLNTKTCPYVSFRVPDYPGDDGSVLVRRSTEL
Description: First of all, the cyclooxygenase-1 was examined through the following procedure.
Peritoneal fluid in which macrophages were suspended was extracted from a mouse peritoneal cavity and centrifuged at 4° C., 1,000 rpm for 2 minutes. Then, the supernatant was removed, suspended with 20 ml of incomplete RPMI medium [PC/SM (penicilin/streptomycin)] and again centrifuged under the same condition. […] Then, the cell number was calculated with the hemocytometer and adjusted to reach 1×10^6 cells/ml of cell concentration in the final cell suspension. 100 μl of the resulting suspension was transferred into each well of 96-well plate and left at 37° C. in 5% CO2 with the incubator for about 2 hours in order to attach macrophages. […] The resulting cell was cultivated in the incubator at 37° C. in 5% CO2 for about 12˜16 hours. Then, arachidonic acid was added, adjusting to 10 μM of a final concentration and incubated at 37° C. for more 10 minutes and the supernatant of the reacted solution (˜180 μl) was recovered to finish the reaction.

cyclooxygenase-2 = molecular target: T2, cyclooxygenase-2 (Mus musculus, UniProt Q05769); experiment: Cyclooxygenase-2 inhibition in aspirin-treated, LPS-stimulated mouse peritoneal macrophages (PGE2 ELISA); assay type: cell-based; conditions: for Inhibitory effects of cyclooxygenase (COX), COX-2: LPS-stimulated mouse peritoneal macrophages
T2 construct: Peritoneal fluid suspended with macrophages was extracted from a mouse peritoneal cavity; endogenous in cells; host or cells: primary mouse peritoneal macrophages, pretreated with 500 µM aspirin and stimulated with 10 µg/ml LPS
T2 sequence (Q05769 18-604): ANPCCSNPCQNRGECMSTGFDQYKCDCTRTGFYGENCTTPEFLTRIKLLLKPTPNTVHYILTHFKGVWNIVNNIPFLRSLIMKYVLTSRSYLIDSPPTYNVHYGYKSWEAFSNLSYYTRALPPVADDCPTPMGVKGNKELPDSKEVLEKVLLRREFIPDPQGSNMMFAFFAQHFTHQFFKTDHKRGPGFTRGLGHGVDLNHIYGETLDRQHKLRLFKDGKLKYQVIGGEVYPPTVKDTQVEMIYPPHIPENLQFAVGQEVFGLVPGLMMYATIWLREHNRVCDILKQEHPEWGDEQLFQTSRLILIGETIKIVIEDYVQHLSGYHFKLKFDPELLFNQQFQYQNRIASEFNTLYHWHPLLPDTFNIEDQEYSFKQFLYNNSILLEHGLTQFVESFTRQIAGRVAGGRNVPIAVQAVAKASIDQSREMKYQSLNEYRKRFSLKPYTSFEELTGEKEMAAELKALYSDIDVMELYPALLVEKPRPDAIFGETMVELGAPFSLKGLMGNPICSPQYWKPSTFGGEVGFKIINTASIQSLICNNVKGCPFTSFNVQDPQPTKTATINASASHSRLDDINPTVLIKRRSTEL
Description: Second, the cyclooxygenase-2 was examined through the following procedure.
Peritoneal fluid suspended with macrophages was extracted from a mouse peritoneal cavity and centrifuged at 4° C., 1,000 rpm for 2 minutes. Then, the supernatant was removed, suspended using incomplete RPMI medium [PC/SM (penicilin/streptomycin)] and again centrifuged under the same condition. […] Then, the cell number was calculated with the hemocytometer and adjusted to reach 1×10^6 cells/ml of cell concentration in the final cell suspension. The resulting suspension was treated with aspirin, adjusting 500 μM of final concentration and transderred into each well of 96-well plate in 100 μl respectively. Again, it was left at 37° C. in 5% CO2 in the incubator for about 2 hours in order to attach macrophages. […] The resulting cell was cultivated in the incubator at 37° C. in 5% CO2 for about 12˜16 hours. Then, arachidonic acid was added, adjusting to 10 μM of a final concentration and incubated at 37° C. for more 10 minutes and the supernatant of the reacted solution (˜180 μl) was recovered to finish the reaction.

[1] = compared with comparative substance

Inhibitory effects of cyclooxygenase (COX), COX-1 (cyclooxygenase-1; 3 μM) | Inhibitory effects of cyclooxygenase (COX), COX-1 (cyclooxygenase-1; 10 μM) | Inhibitory effects of cyclooxygenase (COX), COX-1 (cyclooxygenase-1; 30 μM) | Inhibitory effects of cyclooxygenase (COX), COX-2 (cyclooxygenase-2; 30 nM) | Inhibitory effects of cyclooxygenase (COX), COX-2 (cyclooxygenase-2; 100 nM) | Inhibitory effects of cyclooxygenase (COX), COX-2 (cyclooxygenase-2; 300 nM) | selectivity of cyclooxygenase-2 (in words) (cyclooxygenase-2; COX-2 versus COX-1) | Compound | inhibition effect against cyclooxygenase-1 (in words) (cyclooxygenase-1; [1]) | inhibition effect against cyclooxygenase-2 (in words) (cyclooxygenase-2; [1])
33.2 % inhibition | 40.7 % inhibition | 45.8 % inhibition | ˜0 % inhibition | ˜0 % inhibition | ˜0 % inhibition |  | O=C(c1ccccc1)n1ccc2cc([N+](=O)[O-])ccc21 [Example 1, 1-benzoyl-5-nitro-1H-indole] |  | 
56.7 % inhibition | 68.7 % inhibition | 80.4 % inhibition | 15.7 % inhibition | 20.7 % inhibition | 22.0 % inhibition |  | O=[N+]([O-])c1ccc2c(ccn2Cc2ccccc2)c1 [Example 2, 1-benzyl-5-nitro-1H-indole] |  | 
60.4 % inhibition | 64.4 % inhibition | 74.6 % inhibition | 50.1 % inhibition | 58.8 % inhibition | 70.2 % inhibition |  | O=[N+]([O-])c1ccc2c(ccn2Cc2ccc(F)cc2)c1 [Example 3, 1-(4-fluoro-benzyl)-5-nitro-1H-indole] |  | 
60.3 % inhibition | 71.1 % inhibition | 80.1 % inhibition | 55.4 % inhibition | 69.9 % inhibition | 81.5 % inhibition |  | COc1ccc(Cn2ccc3cc([N+](=O)[O-])ccc32)cc1 [Example 4, 1-(4-methoxy-benzyl)-5-nitro-1H-indole] |  | 
39.9 % inhibition | 47.1 % inhibition | 54.3 % inhibition | 51.2 % inhibition | 55.4 % inhibition | 61.4 % inhibition |  | CC(C)c1ccc(Cn2ccc3cc([N+](=O)[O-])ccc32)cc1 [Example 5, 1-(4-isopropyl-benzyl)-5-nitro-1H-indole] |  | 
52.3 % inhibition | 57.3 % inhibition | 64.8 % inhibition | 33.4 % inhibition | 46.6 % inhibition | 54.9 % inhibition |  | Nc1ccc2c(ccn2C(=O)c2ccccc2)c1 [Example 6, 1-benzoyl-5-amino-1H-indole] |  | 
30.0 % inhibition | 44.1 % inhibition | 56.4 % inhibition | 59.8 % inhibition | 70.6 % inhibition | 76.8 % inhibition | better than any other substances | CS(=O)(=O)Nc1ccc2c(ccn2Cc2ccccc2)c1 [Example 7, N-(1-benzyl-1H-indole-5-yl)-methanesulfonamide] | in much lower level than a comparative substance | more excellent than a comparative substance
7.6 % inhibition | 32.3 % inhibition | 53.9 % inhibition | 22.1 % inhibition | 28.6 % inhibition | 29.6 % inhibition |  | CS(=O)(=O)Nc1ccc2c(ccn2Cc2ccc(F)cc2)c1 [Example 8, N-[1-(4-fluoro-benzyl)-1H-indole-5-yl]-methansulfonamide] |  | 
22.8 % inhibition | 31.1 % inhibition | 42.1 % inhibition | 20.4 % inhibition | 25.5 % inhibition | 30.1 % inhibition |  | CS(=O)(=O)Nc1ccc2c(ccn2C(=O)c2ccccc2)c1 [Example 9, N-(1-benzoyl-1H-indole-5-yl)-methanesulfonamide] |  | 
